From the NIST ThermoML archive (doi:10.1021/je900259b)

What was measured:
[1] = refractive index (Na D-line) (dimensionless); details: 298.15 K; 101.33 kPa; Liquid; Standard Abbe refractometry
[2] = Liquid; for mass density: 298.15 K, 101.33 kPa, Vibrating tube method; for vapor or sublimation pressure: Closed cell (Static) method; for Normal boiling temperature: Ebulliometric method (Recirculating still)

COCCO [2-methoxyethan-1-ol]
Details | mass density [kg/m3] | refractive index
[1] | – | 1.4006
[2] | 960.02 | –

[2]
Details | vapor or sublimation pressure [kPa]
345.94 K | 14.98
349.54 K | 17.51
352.72 K | 20.02
355.49 K | 22.45
358.12 K | 25.02
360.51 K | 27.53
362.72 K | 29.98
364.76 K | 32.52
366.62 K | 34.91
368.51 K | 37.49
370.14 K | 39.92
371.85 K | 42.51
373.35 K | 44.91
374.89 K | 47.49
376.28 K | 49.96
377.65 K | 52.42
378.98 K | 54.96
380.23 K | 57.48
381.44 K | 59.94
382.64 K | 62.46
383.74 K | 64.87
384.89 K | 67.49
385.95 K | 69.92
387.02 K | 72.45
388.02 K | 74.99
388.98 K | 77.41
389.94 K | 79.86
390.92 K | 82.45
391.85 K | 84.96
392.74 K | 87.49
393.61 K | 89.96
394.47 K | 92.48
395.32 K | 94.94
396.12 K | 97.48
396.96 K | 100.03
397.37 K | 101.3

C1CCCCC1 [cyclohexane]
Details | Normal boiling temperature [°C] | mass density [kg/m3] | refractive index
[1] | – | – | 1.4238
[2] | 80.58 | 773.82 | –

C1=CCCCC1 [cyclohexene]
Details | Normal boiling temperature [°C] | mass density [kg/m3] | refractive index
[1] | – | – | 1.4444
[2] | 82.82 | 805.69 | –
